Experimental data taken from patent publication EP0270317A2, “Pharmaceutical compositions for the treatment of diseases caused by viruses” (Kabushiki Kaisha Ueno Seiyaku Oyo Kenkyujo, priority 1986, dated 1988).

Tested on: HTLV-III
Assay: inhibition of viral infection, MT-4 cells infected with HTLV-III, time course (Example 18)
Type: cell-based
Conditions: sole use of 10 nM AZT or 5 µg/ml dextran sulfate; day 9
Procedure: AIDS virus HTLV-III was challenged to established human T-lymphocyte culture cells MT-4 and the cell suspension and virus particles were incubated at 37°C for 1 hour. The cells were then washed with phosphate buffered saline once and cultured with or without various doses of the test substances in RPMI-1640 medium at 37°C under 5 % CO₂ in an incubator.
MT-4 cells infected with HTLV-III were destructed as the virus proliferated, resulting in decrease of viable cells. Prior to the cytolysis by viral cytopathic effect, the cells infected with HTLV-III which were detectable by indirct immuno fluorescence method appeared. On day 12, number of the living cells was counted to know the extent of infection, and rate of the infected cells was determined by indirect immuno-fluorescence method using an antibody having specificity to the virus specific antigen. As the test substances, 3ʹ-azido-3ʹ-deoxythymidine (AZT) and dextran sulfate(M.W. 7000 - 8000, S-content 17 - 20%) (DS) were used.
In the same procedure as in Expample 7, the MT-4 cells infected with HTLV-III were cultured in medium and the changes in the number of viable cells and the rate of the infected cells were recorded in time course. […]

Cc1cn([C@H]2C[C@H](N=[N+]=[N-])[C@@H](CO)O2)c(=O)[nH]c1=O [AZT, 3ʹ-azido-3ʹ-deoxythymidine]
infection: 100%
